The values below come from paper PMC11477482 (Molecules, 2024).

The test system of the test is RAW264.7 cells (mitochondrial O2− production). The test can be described thus: Mitochondrial antioxidant activity (MitoSOX, rotenone-induced superoxide). It is filed as cell-based, mouse. The following applies: rotenone 20 μM alone, oxidative stress inducer. The method, then:
The human keratinocytes (HaCaT, CLS 300493, Eppelheim, Germany) cell line was cultured with Dulbecco’s Modified Eagle’s Medium (DMEM) (Sigma-Aldrich, St. Louis, MO, USA), supplemented with 10% (v/v) of heat-inactivated fetal bovine serum (FBS), 1% (v/v) antibiotic solution (from a 10,000 U/mL penicillin and 10,000 μg/mL streptomycin stock) (Gibco, Carlsbad, CA, USA), 3.7 g/L sodium bicarbonate, and 1 mM sodium pyruvate (Sigma-Aldrich, St. Louis, MO, USA). The cell culture of keratinocytes was detached with EDTA solution 1X (Sigma-Aldrich, St. Louis, MO, USA) when the cells reached 70–80% confluence in cell culture flasks. The mouse macrophage cell line (RAW 264.7, ATCC TIB-71, Manassas, VA, USA) was cultured in DMEM supplemented with 10% (v/v) non-inactivated FBS, 1% (v/v) antibiotic solution, 1.5 g/L sodium bicarbonate, and 1 mM sodium pyruvate. Macrophages were mechanically detached with a cell scraper and subcultured in (1:10) proportion of cellular suspension to a final volume of DMEM. The human monocytic cell line THP-1 (ATCC® TIB-202™, American Type Culture Collection, Manassas, VA, USA) was cultivated in RPMI 1640 supplemented with 10% inactivated FBS, 25 mM (D)-glucose, 10 mM HEPES, 1 mM sodium pyruvate, 100 U/mL penicillin, and 100 μg/mL streptomycin, and maintained at a cell density of 0.4 × 10^6 cells/mL. Cells were subcultured every 2 or 3 days and maintained in culture for 2–3 months, according to ATCC® instructions.
Mitochondrial superoxide (O2^−) generation was determined using the MitoSOX Red kit, according to the manufacturer’s instructions. Briefly, 5.0 × 10^5 cells/mL were plated in a 12-well plate and incubated for 24 h at 37 °C. The cells were then exposed to the AA, AAG and AAGS solution (500 µM), and after 1 h, rotenone (20 μM) was added, followed by incubation for an additional 5 h. The cells were then carefully detached, transferred to microtubes, and centrifuged at 500× g for 3 min. The cell pellet was washed with HBSS solution (2 × 1 mL), resuspended in PBS solution, and 300 µL was collected in two microtubes for unstained (150 µL) and stained (150 µL) conditions. The stained cells were incubated with 100 μL of freshly prepared MitoSOX solution 2.5 µM at 37 °C for 15 min in the dark. The stained cells were washed with HBSS solution (2 × 1 mL), and the cell pellet was resuspended in 100 μL of PBS and analyzed by flow cytometry using a BD Accuri™ C6 cytometer (San Jose, CA, USA).
CD86 and CD54 levels were analyzed by flow cytometry using the acquisition channels FL1 and FL4. Mitochondrial O2^− production was measured by flow cytometry using the acquisition channel FL2. The relative fluorescence intensity (RFI) of CD86 and CD54 (THP-1 maturation assay) and MitoSOX (mitochondrial antioxidant activity) in the control and chemical-treated cells, based on the geometric mean fluorescence intensity (MFI), was calculated according to the following equation: RFI=MFI of chemical treated cells−MFI of chemical treated unstained cells/MFI of control treated cells−MFI of control unstained cells ×100

The structures appear in SMILES notation.

Regarding `C=C(C)[C@H]1Cc2c(ccc3c2O[C@@H]2COc4cc(OC)c(OC)cc4[C@@H]2C3=O)O1` [Rotenone], the “relative fluorescence intensity (RFI) of MitoSOX” value worked out at 269.70 ± 11.63%.
